In patent US20180228804A1, “COMBINATION THERAPY OF HBV AND HDV INFECTION” (MYR GMBH, priority 2014, published 2018):

Legend:
[1] = system: HepaRG cells infected with HBV/HDV containing serum; test: Number of HBcAg-positive HepaRG cells on day 6 post infection by HBcAg-specific IF, Myrcludex B with or without entecavir; assay type: cell-based; conditions: immunochemistry
HBV = conditions: after two years of treatment; cited from earlier work

SMILES	effect of entecavir on the inhibition of HBV receptor by Myrcludex B in vitro [1]	HBsAg seroconversion (HBV)
C=C1[C@H](CO)[C@@H](O)C[C@@H]1n1cnc2c(=O)[nH]c(N)nc21 [entecavir]	did not improve	
C[C@H](Cn1cnc2c(N)ncnc21)OCP(=O)(O)O [tenofovir]		4 % of patients
